# Measurements from patent US8563714B2, “Bridged spiro [2.4] heptane derivatives as ALX receptor and/or FPRL2 agonists” (Actelion Pharmaceuticals Ltd., priority 2009, dated 2013).
# What was measured:
# [1] = biological target: T1, human FPRL2 (Homo sapiens, UniProt P25089); assay: Intracellular calcium measurements (FLIPR), agonistic activity in HEK293-hFPRL2-Gα16 cells; type: cell-based; conditions: Fluo-4 calcium FLIPR, normalized to GLY14-Humanin 100 nM
# T1 construct: expressed in transfected cells; host or cells: HEK293 (HEK293-hFPRL2-Gα16)
# T1 sequence (P25089 1-353): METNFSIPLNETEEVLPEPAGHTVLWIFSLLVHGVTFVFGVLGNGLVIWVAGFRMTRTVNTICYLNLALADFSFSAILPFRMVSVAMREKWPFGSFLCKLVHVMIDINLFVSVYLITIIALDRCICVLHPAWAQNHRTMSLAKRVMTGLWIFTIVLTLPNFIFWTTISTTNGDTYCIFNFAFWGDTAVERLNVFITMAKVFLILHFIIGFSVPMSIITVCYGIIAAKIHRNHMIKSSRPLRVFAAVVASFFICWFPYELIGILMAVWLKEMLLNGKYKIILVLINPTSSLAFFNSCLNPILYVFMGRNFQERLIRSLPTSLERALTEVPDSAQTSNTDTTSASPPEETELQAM
# Protocol: (§1) The ALX receptor and FPRL2 agonistic activities of the compounds of formula (I) are determined in accordance with the following experimental method.
# (§2) Intracellular Calcium Measurements:
# Cells expressing recombinant human FPRL2 and the G-protein Gα16 (HEK293-hFPRL2-Gα16) were grown to 80% confluency in Growing Medium (GM). […] Stock solutions of test compounds were made up at a concentration of 10 mM in DMSO, and serially diluted in AB to concentrations required for activation dose response curves. Gly14-Humanin (Humanin peptide with replacement of Serine by Glycine at position 14, Phoenix Peptides) was used as a reference agonist. FLIPR384 or FLIPR Tetra instruments (Molecular Devices) were operated according to the manufacturer's standard instructions, adding 4 μl of test compound dissolved at 10 mM in DMSO and diluted prior to the experiment in assay buffer to obtain the desired final concentration. Changes in fluorescence were monitored before and after the addition of test compounds at lex=488 nm and lem=540 nm. Emission peak values above base level after compounds addition were exported after base line subtraction. Values were normalized to high-level control (GLY14-Humanin compound, 100 nM final concentration) after subtraction of the base line value (AB addition).
# [2] = biological target: T2, human ALX receptor (Homo sapiens, UniProt P25090); assay: Intracellular calcium measurements (FLIPR), agonistic activity in HEK293-hALXR-Gα16 cells; type: cell-based; conditions: Fluo-4 calcium FLIPR, normalized to WKYMVm 10 nM
# T2 construct: expressed in transfected cells; host or cells: HEK293 (HEK293-hALXR-Gα16)
# T2 sequence (P25090 1-351): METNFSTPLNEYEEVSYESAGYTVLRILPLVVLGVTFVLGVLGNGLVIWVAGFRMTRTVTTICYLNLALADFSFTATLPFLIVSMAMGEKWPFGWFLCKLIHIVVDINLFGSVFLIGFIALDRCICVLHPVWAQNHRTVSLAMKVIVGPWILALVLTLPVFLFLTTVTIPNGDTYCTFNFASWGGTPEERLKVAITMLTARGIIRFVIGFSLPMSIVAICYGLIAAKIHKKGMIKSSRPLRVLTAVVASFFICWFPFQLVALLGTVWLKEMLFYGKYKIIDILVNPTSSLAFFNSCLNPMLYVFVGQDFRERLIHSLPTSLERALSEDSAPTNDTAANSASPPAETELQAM
# Protocol: as §1, §2
# Cells expressing recombinant human ALX receptor and the G-protein Gα16 (HEK293-hALXR-Gα16) were grown to 80% confluency in Growing Medium (GM). Cells were detached from culture dishes with a cell dissociation buffer (Invitrogen, 13151-014), and collected by centrifugation at 1,000 rpm at rt for 5 min in Assay Buffer (AB) (equal parts of Hank's BSS (Gibco, 14065-049) and DMEM without Phenol Red (Gibco, 11880-028)). After 60 min incubation at 37° C. under 5% CO2 in AB supplemented with 1 μM Fluo-4 (AM) (Invitrogen, F14202), and 20 mM HEPES (Gibco, 15630-056), the cells were washed and resuspended in AB. They were then seeded onto 384-well FLIPR assay plates (Greiner, 781091) at 50′000 cells in 70 μl per well and sedimented by centrifugation at 1,000 rpm for 1 min. Stock solutions of test compounds were made up at a concentration of 10 mM in DMSO, and serially diluted in AB to concentrations required for activation dose response curves. WKYMVm (Phoenix Peptides) was used as a reference agonist. FLIPR384 or FLIPR Tetra instruments (Molecular Devices) were operated according to the manufacturer's standard instructions, adding 4 μl of test compound dissolved at 10 mM in DMSO and diluted prior to the experiment in assay buffer to obtain the desired final concentration. Changes in fluorescence were monitored before and after the addition of test compounds at lex=488 nm and lem=540 nm. Emission peak values above base level after compounds addition were exported after base line subtraction. Values were normalized to high-level control (WKYMVm compound, 10 nM final concentration) after subtraction of the base line value (AB addition).
EC50 [1],EC50 [2],SMILES
1510 nM,0.94 nM,"O=C(Nc1ccc(Br)cc1)C1C(C(=O)NC2CCNC2)C2C=CC1C21CC1 (mixture of isomers) [Example 9, (5R*)—N^5-(4-Bromophenyl)-(6R*)—N^6-(pyrrolidin-3-yl)-(4S*,7R*)-[4,7-ethenylene-spiro[2.4]heptane]-5,6-dicarboxamide]"
551 nM,2 nM,"O=C(NCC1CCCN1)C1C(C(=O)Nc2ccc(Br)cc2)C2C=CC1C21CC1 (mixture of isomers) [Example 18, (5R*)—N^5-(4-Bromophenyl)-(6R*)—N^6-(2-pyrrolidinyl-methyl)-(4S*,7R*)-[4,7-ethenylene-spiro[2.4]heptane]-5,6-dicarboxamide]"
4640 nM,3.2 nM,"O=C(NCC1CCCO1)C1C(C(=O)Nc2ccc(Br)cc2)C2C=CC1C21CC1 (mixture of isomers) [Example 22, (5R*)—N^5-(4-Bromophenyl)-(6R*)—N^6-(2-tetrahydrofuranyl-methyl)-(4S*,7R*)-[4,7-ethenylene-spiro[2.4]heptane]-5,6-dicarboxamide]"
365 nM,3.9 nM,"CCN(CC)CCCC(C)NC(=O)C1C(C(=O)Nc2ccc(Br)cc2)C2C=CC1C21CC1 (mixture of isomers) [Example 25, (5R*)—N^5-(4-Bromophenyl)-(6R*)—N^6-(5-(N,N-diethyl-amino)-pent-2-yl)-(4S*,7R*)-[4,7-ethenylene-spiro[2.4]heptane]-5,6-dicarboxamide]"
744 nM,4.2 nM,"O=C(Nc1ccc(Br)cc1)C1C(C(=O)NC2CCCNC2)C2C=CC1C21CC1 (mixture of isomers) [Example 26, (5R*)—N^5-(4-Bromophenyl)-(6R*)—N^6-(piperidin-3-yl)-(4S*,7R*)-[4,7-ethenylene-spiro[2.4]heptane]-5,6-dicarboxamide]"
> 25000 nM,4.5 nM,"CC(CO)NC(=O)C1C(C(=O)Nc2ccc(Br)cc2)C2C=CC1C21CC1 (mixture of isomers) [Example 28, (5R*)—N^5-(4-Bromophenyl)-(6R*)—N^6-(1-hydroxy-prop-2-yl)-(4S*,7R*)-[4,7-ethenylene-spiro[2.4]heptane]-5,6-dicarboxamide]"
4100 nM,5.8 nM,"CN1CCCC1CCNC(=O)C1C(C(=O)Nc2ccc(Br)cc2)C2C=CC1C21CC1 (mixture of isomers) [Example 33, (5R*)—N^5-(4-Bromophenyl)-(6R*)—N^6-(2-(1-methyl-pyrrolidin-2-yl)-ethyl)-(4S*,7R*)-[4,7-ethenylene-spiro[2.4]heptane]-5,6-dicarboxamide]"
8510 nM,9.5 nM,"O=C(NCC1COCCO1)C1C(C(=O)Nc2ccc(Br)cc2)C2C=CC1C21CC1 (mixture of isomers) [Example 41, (5R*)—N^5-(4-Bromophenyl)-(6R*)—N^6-([1,4]-dioxan-2-yl-methyl)-(4S*,7R*)-[4,7-ethenylene-spiro[2.4]heptane]-5,6-dicarboxamide]"
2590 nM,16 nM,"CCN1CCCC1CNC(=O)C1C(C(=O)Nc2ccc(Br)cc2)C2C=CC1C21CC1 (mixture of isomers) [Example 54, (5R*)—N^5-(4-Bromophenyl)-(6R*)—N^6-[(1-ethyl-pyrrolidin-2-yl)-methyl]-(4S*,7R*)-[4,7-ethenylene-spiro[2.4]heptane]-5,6-dicarboxamide]"
8280 nM,21 nM,"CC(C)CC(CO)NC(=O)C1C(C(=O)Nc2ccc(Br)cc2)C2C=CC1C21CC1 (mixture of isomers) [Example 59, (5R*)—N^5-(4-Bromophenyl)-(6R*)—N^6-[(2S)-1-hydroxy-4-methyl-pent-2-yl]-(4S*,7R*)-[4,7-ethenylene-spiro[2.4]heptane]-5,6-dicarboxamide]"
2280 nM,80 nM,"O=C(NCC(c1ccccc1)N1CCOCC1)C1C(C(=O)Nc2ccc(Br)cc2)C2C=CC1C21CC1 (mixture of isomers) [Example 77, (5R*)—N^5-(4-Bromophenyl)-(6R*)—N^6-(2-phenyl-2-morpholino-ethyl)-(4S*,7R*)-[4,7-ethenylene-spiro[2.4]heptane]-5,6-dicarboxamide]"
8730 nM,100 nM,"NC(=O)C1CCCCC1NC(=O)C1C(C(=O)Nc2ccc(Br)cc2)C2C=CC1C21CC1 (mixture of isomers) [Example 81, (5R*)—N^5-(4-Bromophenyl)-(6R*)—N^6-(2-carbamoyl-cyclohexyl)-(4S*,7R*)-[4,7-ethenylene-spiro[2.4]heptane]-5,6-dicarboxamide]"
6590 nM,118 nM,"CC(NC(=O)C1C(C(=O)Nc2ccc(Br)cc2)C2C=CC1C21CC1)C(=O)N1CCCCC1 (mixture of isomers) [Example 82, (5R*)—N^5-(4-Bromophenyl)-(6R*)—N^6-(1-piperidin-1-yl-propan-1-on-2-yl)-(4S*,7R*)-[4,7-ethenylene-spiro[2.4]heptane]-5,6-dicarboxamide]"
1850 nM,223 nM,"NC(=O)C(Cc1ccccc1)NC(=O)C1C(C(=O)Nc2ccc(Br)cc2)C2C=CC1C21CC1 (mixture of isomers) [Example 95, (5R*)—N^5-(4-Bromophenyl)-(6R*)—N^6-[(1S)-1-carbamoyl-2-phenyl-ethyl]-(4S*,7R*)-[4,7-ethenylene-spiro[2.4]heptane]-5,6-dicarboxamide]"

SMILES,EC50 [1],EC50 [2]
"CC(C)(C)OC(=O)N1CCC(NC(=O)C2C(C(=O)Nc3ccc(Br)cc3)C3C=CC2C32CC2)C1 (mixture of isomers) [Example 14, (5R*)—N^5-(4-Bromophenyl)-(6R*)—N^6-(N-tert-butoxycarbonyl-pyrrolidin-3-yl)-(4S*,7R*)-[4,7-ethenylene-spiro[2.4]heptane]-5,6-dicarboxamide]",1690 nM,1.2 nM
"CC(C)(C)OC(=O)N1CCCC(NC(=O)C2C(C(=O)Nc3ccc(Br)cc3)C3C=CC2C32CC2)C1 (mixture of isomers) [Example 56, (5R*)—N^5-(4-Bromophenyl)-(6R*)—N^6-(N-tert-butoxycarbonyl-piperidin-3-yl)-(4S*,7R*)-[4,7-ethenylene-spiro[2.4]heptane]-5,6-dicarboxamide]",1750 nM,18 nM
"CC(NC(=O)C1C(C(=O)Nc2ccc(Br)cc2)C2C=CC1C21CC1)C(N)=O (mixture of isomers) [Example 65, (5R*)—N^5-(4-Bromophenyl)-(6R*)—N^6-[(1S)-1-carbamoyl-ethyl]-(4S*,7R*)-[4,7-ethenylene-spiro[2.4]heptane]-5,6-dicarboxamide]",> 25000 nM,26 nM
"CC(C)(C)OC(=O)N1CCCC1CNC(=O)C1C(C(=O)Nc2ccc(Br)cc2)C2C=CC1C21CC1 (mixture of isomers) [Example 79, (5R*)—N^5-(4-Bromophenyl)-(6R*)—N^6—(N-tert-butoxycarbonyl-pyrrolidin-2-yl-methyl)-(4S*,7R*)-[4,7-ethenylene-spiro[2.4]heptane]-5,6-dicarboxamide]",1300 nM,96 nM
